Reference: PMC9692247 (Pharmaceuticals, 2022)
One block for each compound: values may come before it.

Experiments:
[1] = In vivo PK study in CD-1 male mice (plasma); set-up: species or system CD-1 mice
Experimental: (§1) In vivo mouse studies were performed at Pharmaron in CD-1 male mice in triplicate. The test compounds were formulated within a 4 mg/mL solution (10% DMA, 65% PEG400, 25% saline). CD-1 mice were administered the test compound (50 mg/kg, I.P) once, and blood samples were obtained from each mouse at 0.25, 0.5, 1, 2, 4, 8, and 24 h post-dose. The mice had free access to food and water, were inspected for clinical signs and were weighted once prior to dosing. The working solutions of 5 μL at different concentrations (2, 4, 10, 20, 100, 200, 1000, 2000 ng/mL) were added to CD-1 mouse plasma (10 μL) to generate calibration standards of 1, 2, 5, 10, 50, 100, 500, and 1000 ng/mL. Four quality control (QC) samples at 2, 5, 50, and 800 ng/mL for plasma were prepared independently of calibration curves. Standards, QC samples, and unknown samples (total volume 15 µL) were added to acetonitrile (200 μL) containing IS (2 ng/mL Verapamil, and 50 ng/mL Dexamethasone) for precipitation of protein. Samples were vortexed and centrifuged (4 °C, 3900 rpm, 15 min), and the supernatant was diluted 3× with ultra-pure water. Diluted supernatant was injected into the LC-MS/MS system for quantitative analysis.

[2] = Plasma stability evaluation; format: in vitro ADME; details: read-out: T1/2 in plasma
[3] = molecular target: T1, recombinant zfHDAC6 (HDAC6 CD2) (Danio rerio, UniProt F8W4B7); assay: Fluorescence polarization (FP) competition assay with FITC-M344; format: binding, Danio rerio (zebrafish); details: for IC50: 300 nM HDAC6 CD2, 50 nM FITC-M344, read-out: Fluorescence polarization IC50 against zfHDAC6
T1 construct: HDAC6 from Danio rerio (zebrafish; catalytic domain 2, S440-R798); His-SUMO (N, cleaved yes); made in house; host or cells: E. coli BL21 (DE3) RILP
T1 sequence (F8W4B7 440-798): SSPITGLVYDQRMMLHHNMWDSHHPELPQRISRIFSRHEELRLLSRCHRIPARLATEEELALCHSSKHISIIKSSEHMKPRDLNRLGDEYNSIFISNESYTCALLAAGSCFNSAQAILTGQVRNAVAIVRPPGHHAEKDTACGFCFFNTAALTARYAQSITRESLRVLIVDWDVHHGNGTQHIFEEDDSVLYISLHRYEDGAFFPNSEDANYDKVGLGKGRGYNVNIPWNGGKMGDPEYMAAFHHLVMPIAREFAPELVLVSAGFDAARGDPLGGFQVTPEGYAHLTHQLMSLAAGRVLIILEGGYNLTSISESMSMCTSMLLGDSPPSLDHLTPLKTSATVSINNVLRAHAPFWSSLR
Experimental: The FP assay was conducted in a Greiner Bio-one black 384-well, nonbinding microplate (Cat 781900) as previous described. These studies were performed in FP buffer (20 mM HEPES pH 8.0, 137 mM NaCl, 3 mM KCl, 1 mM TCEP, 5% DMSO). Binding experiments were performed in the presence of 50 nM FITC-M344 synthesized as described by Mazitschek et al. and titrated with 0–3 µM HDAC6. Competition assays were performed by titrating 0–100 µM inhibitor to 300 nM HDAC6 CD2 and preincubating the samples for 10 min prior to addition of 50 nM FITC-M344 in FP buffer. The assay mixture was incubated for an additional 10 min before FP measurement. Polarization measurements were collected using Infinite M1000-Tecan (ex/em = 470 nm/530 nm) and data were plotted and fitted using Prism GraphPad 6 built-in function, log(inhibitor) vs. response—variable slope (four parameters).

[4] = tested on: acetylation of α-tubulin and histone H3 in multiple myeloma (MM.1S) cells; assay: In cellulo target engagement by Western blotting; format: cell-based; details: 6 h treatment, Western blot
Experimental: (§2) Cells (MV4-11 AML, MM.1S multiple myeloma, or YT cells) were incubated with inhibitors prior to washes (2×) with cold phosphate-buffered saline (PBS) and cell lysis with radioimmunoprecipitation assay (RIPA) buffer (20 mM Tris pH 7.4, 150 mM NaCl, 0.5% deoxycholate, 1% Triton X-100, and 0.1% sodium dodecyl sulfate (SDS)). Total protein content was determined through a bicinchoninic acid (BCA) assay (ThermoFisher Scientific, Waltham, MA, USA). The cell lysate proteins were separated via a 4–20% polyacrylamide SDS gel and transferred to a PVDF membrane (Bio-Rad, Hercules, CA, USA). Non-specific binding of the antibody to the membrane was reduced by blocking the membranes with a 5% (w/v) solution of Bovine Serum Albumin powder in TBS-T. This was followed by incubation at 4 °C (overnight) with the following antibodies: acetylated α-tubulin mouse monoclonal (sc-23950, Santa Cruz, Santa Cruz, CA, USA), acetylated Histone H3 (Ac-Lys18, 07-354, Sigma), β-Actin mouse monoclonal (AC-15, sc-69879, Santa Cruz), and […] HSC70 (sc-7298, Santa Cruz). Following overnight incubation, horseradish peroxidase (HRP)-conjugated goat anti-mouse IgG secondary antibody (7076, Cell Signaling) or HRP-linked anti-rabbit IgG secondary antibody (7074, Cell Signaling) was applied to the membrane in a 1:5000 dilution for 1 h. The bands were visualized using clarity Western ECL substrate luminal/enhancer solution and peroxide solution. Western blotting analysis was carried out using Image lab software (Bio-Rad).

[5] = tested on: acetylation of α-tubulin and histone H3 in acute myeloid leukemia (MV4-11) cells; assay: In cellulo target engagement by Western blotting; format: cell-based; details: 6 h treatment, Western blot
Experimental: as §2

MTA cells = assay: Cytotoxicity assay (Cell Titer-Blue, 72 h); format: cell-based; details: Homo sapiens, one representative of three experiments
Experimental: (§3) KHYG-1, SNK6, MTA, YT, DERL-2, DERL-7, Mac2a, SU-DHL-1, Myla, Hut78, SeAx, HH, MOTN-1, KOPT-K1, Jurkat, and Loucy cells were plated in 96-well flat-bottom sterile culture plates with low-evaporation lids (Costar #3997). The inhibitors and a vehicle control (0.5% DMSO) were added to the cells following 24 h. After 72 h, Cell Titer-Blue® (Promega #G808A) was added to each well (20 μL), and the fluorescence was measured at 560/590 nm using a Cytation S63 spectrophotometer (BioTek) or on the GloMax® Discover Microplate Reader (Promega, Madison, WI, USA). IC50 values were determined using non-linear regression analysis with GraphPad Prism 6.0 (GraphPad Software Inc., San Diego, CA, USA).

Mac2a cells = assay: Cytotoxicity assay (Cell Titer-Blue, 72 h); format: cell-based; details: Homo sapiens, one representative of three experiments
Experimental: as §3

Jurkat cells = assay: Cytotoxicity assay (Cell Titer-Blue, 72 h); format: cell-based; details: Homo sapiens, one representative of three experiments
Experimental: as §3

KHYG-1 cells = assay: Cytotoxicity assay (Cell Titer-Blue, 72 h); format: cell-based; details: Homo sapiens, one representative of three experiments, ANKL to T-ALL panel
Experimental: as §3

YT cells = assay: Cytotoxicity assay (Cell Titer-Blue, 72 h); format: cell-based; details: Homo sapiens, one representative of three experiments
Experimental: as §3

SNK6 cells = assay: Cytotoxicity assay (Cell Titer-Blue, 72 h); format: cell-based; details: Homo sapiens, one representative of three experiments
Experimental: as §3

SeAx cells = assay: Cytotoxicity assay (Cell Titer-Blue, 72 h); format: cell-based; details: Homo sapiens, one representative of three experiments
Experimental: as §3

Myla cells = assay: Cytotoxicity assay (Cell Titer-Blue, 72 h); format: cell-based; details: Homo sapiens, one representative of three experiments
Experimental: as §3

DERL-7 cells = assay: Cytotoxicity assay (Cell Titer-Blue, 72 h); format: cell-based; details: Homo sapiens, DERL7, one representative of three experiments
Experimental: as §3

DERL-2 cells [6] = assay: Cytotoxicity assay (Cell Titer-Blue, 72 h); format: cell-based; details: Homo sapiens, one representative of three experiments
Experimental: as §3

SU-DHL-1 cells = assay: Cytotoxicity assay (Cell Titer-Blue, 72 h); format: cell-based; details: Homo sapiens, one representative of three experiments
Experimental: as §3

Hut78 cells = assay: Cytotoxicity assay (Cell Titer-Blue, 72 h); format: cell-based; details: Homo sapiens, one representative of three experiments
Experimental: as §3

HH cells = assay: Cytotoxicity assay (Cell Titer-Blue, 72 h); format: cell-based; details: Homo sapiens, one representative of three experiments
Experimental: as §3

Loucy cells = assay: Cytotoxicity assay (Cell Titer-Blue, 72 h); format: cell-based; details: Homo sapiens, one representative of three experiments
Experimental: as §3

KOPT-K1 cells = assay: Cytotoxicity assay (Cell Titer-Blue, 72 h); format: cell-based; details: Homo sapiens, KOPTK1, one representative of three experiments
Experimental: as §3

MOTN-1 cells = assay: Cytotoxicity assay (Cell Titer-Blue, 72 h); format: cell-based; details: Homo sapiens, one representative of three experiments
Experimental: as §3

DERL-2 cells [7] = assay: FACS apoptosis detection assay (annexin V/PI); format: cell-based, human; details: DERL-2, 18 h treatment
Experimental: DERL-2 cells were seeded, dosed with inhibitors, incubated for 18 h, and washed with ice cold 1× PBS. The resulting cell pellets were resuspended in 1× Binding Buffer (1 × 10^6 cell/mL) from the FITC Annexin V Apoptosis Detection Kit I (BD Pharmingen). Subsequently, the dyes Annexin V (5 μL) and Propidium Iodide (PI, 5 μL) were added to 2.5 × 10^5 cells (250 μL). The suspension was thoroughly mixed and incubated in the dark for 15 min. Following the addition of 250 μL of 1× binding buffer the cells were analyzed by flow cytometry within 1 h using Cytoflex S (Beckman Coulter, Brea, CA, USA).

[8] = In vivo brain PK analysis in male CD-1 mice; details: IP, 50 mg/kg, n = 3
Experimental: as §1

HDAC6 = HDAC6 (Homo sapiens, UniProt Q9UBN7); assay: Intracellular target engagement residence time assay (NanoBRET) in HeLa cells; format: cell-based; details: HeLa cells transiently expressing HDAC6-NanoLuc full-length fusion protein
[9] = mouse, plasma, male CD-1 mice, IP, 50 mg/kg, n = 3

in vivo t1/2 longer than that of KT-531 ([1]; CD-1 mice, KT-531 at a lower dose): > 3.5 fold | in vivo t1/2 longer than that of NN-390 ([1]; CD-1 mice, NN-390 at a lower dose): ~ 1.8 fold | AUC(0-inf) [1, 9]: 9920 ng·h/mL | AUC(0-t) [1, 9]: 9860 ng·h/mL | Cmax [1, 9]: 3190 ng/mL | half-life [1, 9]: 3.53 h | half-life [2]: 1.55 h | IC50 [3]: 0.0288 µM | Levels in the brain [8]: no observable levels
Compound: CC(C)N(Cc1ccc(C(=O)NO)cc1F)S(=O)(=O)c1cc(F)c(F)c(F)c1F [NN-429]
Concentration with visible off-target interaction (histone H3 acetylation) [4]: 5 µM | Lowest concentration with dose-dependent increase in acetylation of α-tubulin [4]: 0.1 µM | Target engagement (α-tubulin vs histone H3 acetylation) [5]: strong target engagement with minimal acetylation of off-target histone H3 | IC50 (MTA cells): 0.72 µM | IC50 (Mac2a cells): 15.1 µM | IC50 (Jurkat cells): 5.46 µM | IC50 (KHYG-1 cells): 7.25 µM | IC50 (YT cells): 1.29 µM | IC50 (SNK6 cells): 12 µM | IC50 (SeAx cells): 12.4 µM | IC50 (Myla cells): > 50 µM | IC50 (DERL-7 cells): 2.21 µM | IC50 (DERL-2 cells [6]): 2.32 µM | IC50 (SU-DHL-1 cells): 4.72 µM | IC50 (Hut78 cells): 16.7 µM | IC50 (HH cells): 2.95 µM | IC50 (Loucy cells): 3.6 µM | IC50 (KOPT-K1 cells): 6.16 µM | IC50 (MOTN-1 cells): 2.75 µM | Cells undergoing early-stage apoptosis (annexin V+/PI−) (DERL-2 cells [7]; 0.1 μM): 15% | Cells undergoing early-stage apoptosis (annexin V+/PI−) (DERL-2 cells [7]; 5 μM): 56%

Compound: O=C(CCCCCCNC(=O)c1cnc(N(c2ccccc2)c2ccccc2Cl)nc1)NO [Citarinostat, citarinostat]
IC50 [3]: 0.0902 µM | Binding affinity lower than NN-429 (FP) ([3]; FP IC50 vs NN-429): 3 fold

Intracellular residence time in HDAC6 (HDAC6): 97 min
Compound: CC(C)N(Cc1ccc(C(=O)NO)cc1)S(=O)(=O)c1cc(F)c(F)c(F)c1F [NN-390]
